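96-well plates; 48 h exposure; 5 concentrations. Endpoints by linear interpolation between flanking doses. Not reached: highest tested concentration assigned. TGI: concentration producing complete growth inhibition.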
Legend:
Assay in all cases: NCI tumour cell line growth inhibition, 48 h
[1] = tested on: HS 578T breast
[2] = tested on: LOX IMVI melanoma
[3] = tested on: K-562 leukemia
[4] = tested on: NCI-H23 lung
[5] = tested on: MALME-3M melanoma
[6] = tested on: NCI/ADR-RES ovarian
[7] = tested on: ACHN renal
[8] = tested on: SF-539 CNS
[9] = tested on: SNB-19 CNS
[10] = tested on: OVCAR-5 ovarian
[11] = tested on: OVCAR-3 ovarian
[12] = tested on: SF-268 CNS
[13] = tested on: UO-31 renal
[14] = tested on: OVCAR-8 ovarian
[15] = tested on: UACC-257 melanoma
[16] = tested on: HCT-116 colon
[17] = tested on: DU-145 prostate
[18] = tested on: MDA-MB-231 breast
[19] = tested on: CCRF-CEM leukemia
[20] = tested on: BT-549 breast

SMILES	TGI [1]	TGI [2]	TGI [3]	TGI [4]	TGI [5]	TGI [6]	TGI [7]	TGI [8]	TGI [9]	TGI [10]	TGI [11]	TGI [12]	TGI [13]	TGI [14]	TGI [15]	TGI [16]	TGI [17]	TGI [18]	TGI [19]	TGI [20]
CC(C)(C)C1=C(Br)C(C(C)(C)C)OP1(=O)O (stereo not drawn)	> 100 µM	> 100 µM	> 100 µM	> 100 µM	> 100 µM	> 100 µM	> 100 µM	> 100 µM	> 100 µM	> 100 µM	> 100 µM	> 100 µM	> 100 µM	> 100 µM	> 100 µM	> 100 µM	> 100 µM			
O=C1C2=Cc3ccccc3OC2(O)Oc2cc3ccccc3cc21 (stereo not drawn)		> 100 µM	> 100 µM	> 100 µM	> 100 µM	> 100 µM	> 100 µM	79.2 µM		> 100 µM	> 100 µM	> 100 µM		> 100 µM	> 100 µM	> 100 µM	> 100 µM	> 100 µM	> 100 µM	> 100 µM
CCCCCCCC(CC(=O)NC(CO)C(=O)NC(CO)CC(C)C)OC(=O)CC(CCCCCCC)OC(=O)CC(CCCCCCC)OC1OC(C)C(O)C(OC2OC(C)C(OC(C)=O)C(O)C2O)C1O (stereo not drawn)	18.7 µM		34.3 µM	22 µM	23.9 µM		29.2 µM	23.4 µM	18.3 µM	21.7 µM	24.2 µM	23.3 µM	28.8 µM	23.3 µM	12 µM	17.9 µM	24 µM	20.4 µM	14.2 µM	19.6 µM
Nn1c(C23CC4CC(CC(C4)C2)C3)n[nH]c1=S	> 100 µM	> 100 µM	> 100 µM	> 100 µM	> 100 µM	> 100 µM	> 100 µM	> 100 µM	> 100 µM	> 100 µM	> 100 µM	> 100 µM	> 100 µM			> 100 µM	> 100 µM	> 100 µM	> 100 µM	
CCCCCCNCCc1cnc[nH]1	> 100 µM	> 100 µM	> 100 µM	> 100 µM	> 100 µM	> 100 µM	> 100 µM	> 100 µM	> 100 µM	> 100 µM	> 100 µM	> 100 µM	> 100 µM	> 100 µM	> 100 µM	> 100 µM	> 100 µM	> 100 µM	> 100 µM	
O=c1[nH]c2cc(C(F)(F)F)ccc2nc1C(F)(F)F		> 100 µM	> 100 µM	94.2 µM	> 100 µM	> 100 µM	> 100 µM	94.6 µM	> 100 µM	> 100 µM	58 µM	> 100 µM	> 100 µM	> 100 µM	90.6 µM	> 100 µM	> 100 µM	> 100 µM	> 100 µM	> 100 µM
S=C(N/N=C/c1ccccn1)N1CCCCC1	45.1 µM	20.8 µM	45.6 µM	> 45.7 µM	7.57 µM	< 0.0382 µM	3.44 µM	0.749 µM	> 100 µM	> 100 µM	26.4 µM		15.2 µM	> 65.6 µM	0.188 µM	10.9 µM	> 100 µM			32.5 µM
O=C(NN1C(=O)C(Cl)C1c1ccc(Cl)cc1)c1c(Cl)c(Cl)c(Cl)c(Cl)c1-c1nc2ccccc2[nH]1 (stereo not drawn)	> 100 µM	32.5 µM	> 100 µM	69 µM	63.4 µM	> 100 µM	43.5 µM	> 100 µM	> 100 µM	> 100 µM	> 100 µM	> 100 µM	> 100 µM	43.7 µM	> 100 µM	44 µM	42.6 µM		> 100 µM	77.8 µM
COC1(OC)N=C(N)C2(C#N)C(c3ccccc3)NC3=C(CCC3)C12C#N (stereo not drawn)	> 100 µM	> 100 µM		> 100 µM	> 100 µM	> 100 µM	> 100 µM		> 100 µM	> 100 µM		> 100 µM	> 100 µM	> 100 µM	> 100 µM	> 100 µM	> 100 µM	> 100 µM	> 100 µM	> 100 µM
COc1ccc2c(c1)CN1C(=N2)CSC1c1cccc(Br)c1 (stereo not drawn)	> 100 µM	> 100 µM	> 100 µM	83.5 µM	> 100 µM	> 100 µM	> 100 µM	> 100 µM	> 100 µM	> 100 µM		> 100 µM	> 100 µM	> 100 µM	> 100 µM	> 100 µM		> 100 µM		> 100 µM
CN(/N=C/c1ccc(C(=O)O)cc1)C1=NCCCCN1		> 100 µM	> 100 µM	> 100 µM	> 100 µM	> 100 µM	> 100 µM	> 100 µM	> 100 µM	> 100 µM	> 100 µM	> 100 µM	> 100 µM	> 100 µM	> 100 µM	> 100 µM	> 100 µM	> 100 µM	> 100 µM	> 100 µM
COC(=O)[C@@H]1C[C@H]2OC(=O)CC[C@]2(C)O[C@H]1[C@H]1O[C@@](C)(O)CCC[C@H]1C	> 50 µM	> 50 µM	> 50 µM	> 50 µM	> 50 µM		> 50 µM	> 50 µM	> 50 µM	> 50 µM	> 50 µM	> 50 µM	> 50 µM	> 50 µM	> 50 µM	> 50 µM	> 50 µM	> 50 µM	39.3 µM	> 50 µM
CNc1ncccc1Nc1cc(=O)n2c3cccnc3n(C)c2c1		> 100 µM	> 100 µM	> 100 µM		> 100 µM	> 100 µM	> 100 µM	> 100 µM	> 100 µM	> 100 µM	> 100 µM	> 100 µM	> 100 µM	> 100 µM	> 100 µM	> 100 µM	> 100 µM	> 100 µM	> 100 µM

Reference: PubChem BioAssay (NCI)
